How the values were obtained:
[1] = Fluorescence enhancement of TO1-PA; assay type: biochemical; conditions: ligand TO1-PA
Protocol: (§1) The bandwidth for all measurements was 1.5 nm for all experiments. Measurements were performed in a 0.2 cm path length cuvette in a background of 20 mM MOPS pH 7.0, 150 mM KCl, 10 μM EDTA. Fluorescence readings were taken in the absence of RNA at a ligand concentration of 0.82 μM. A concentrated, annealed stock of RNA was then added to the cuvette resulting in a final concentration of 2 μM RNA and allowed to equilibrate for 1 minute prior to taking an emission reading. Fluorescence enhancement was determined by dividing the fluorescence signal of ligand in the presence of RNA by the fluorescence signal in the absence of RNA corrected for the background of the instrument.

[2] = Fluorescence enhancement of TO1-ME; assay type: biochemical; conditions: ligand TO1-ME
Protocol: as §1

[3] = Fluorescence titration, binding affinity for TO1-Biotin; conditions: for Kd: ligand TO1-B (TO1-Biotin)
Text: FIG. 2|RNA Mango I, II, III and IV core sequences and their properties. (a) Color coded alignment of RNA Mango I, II, III and IV. G residues in yellow are protected from DMS cleavage (data from panel d) when folded in the presence of fluorophore. Quadruplex stacks and their associated propeller sequences are numbered 1 through 4. The GAAA isolation motif of Mango I, together with two adenines essential for binding, are shown in green and red respectively. Purple shading represents a flanking stem region common for all four Mango aptamers. Schematic: A tertiary structure schematic of Mango I, showing tier 1, 2 and 3 of its quadruplex structure (T1, T2 and T3) and color-coded as in (a). […] Bottom: Top view of the Mango I core (PBD ID: 5V3F), showing the T3 tier of the quadruplex and relevant propeller residues, color coding matches the schematic and panel a. […] KD values are shown next to each titration. (c) Same as for panel b but using 20 nM TO3-Biotin. Data for panels b and c have been normalized such that Mango I has a maximum fluorescence of 1. Error bars are standard deviation of three replicates. (d) DMS chemical protection patterns for the four Mango aptamers. 3′ end-labelled RNA (terminal ^32pCp shown as a black asterisk) was subjected to DMS chemical modification followed by reduction by NaBH4 and aniline cleavage as described in the methods. […] Legend: T1—denatured T1 ladder; OH—partial alkaline hydrolysis ladder; (−) DMS—denatured reaction with ddH2O added in place of DMS; 80° C.
Fluorescence data was gathered using a Varian Cary Eclipse Spectrophotometer unless otherwise stated. […] Fluorescence was measured at the maximum excitation and emission wavelengths of each complex (FIG. 13).
Where F([RNA]) is the fluorescence as a function of RNA concentration [RNA], Fmax is the maximal fluorescence of the bound complex and Funbound the fluorescence of the unbound fluorophore. When the fluorescence of Funbound was undetectable, it was set to zero.
Fluorescence readings were recorded using a Varian Cary Eclipse Spectrophotometer set to measure at the maximum excitation and emission wavelengths of the Mango II aptamer dye complex. Fluorescence titrations were performed in Mango selection buffer (WB: 140 mM KCl, 1 mM MgCl2, 10 mM NaH2PO4 pH 7.2, 0.05% Tween-20).

[4] = Fluorescence lifetime measurements (TCSPC); assay type: physicochemical; conditions: for α1 (%): amplitude of τ1; for α2 (%): amplitude of τ2; for τi (ns), intensity-weighted average lifetime / τa (ns), amplitude-weighted average lifetime: calculated from the components; for τ1 (ns) / τ2 (ns): free TO1-Biotin or RNA bound to TO1-Biotin
Protocol: Fluorophore lifetime measurements were performed by using an in-house modified 2-photon fluorescence microscope based on a Zeiss LSM 510 unit capable of Time-Correlated Single-Photon Counting (TCSPC) measurements. A diode-pumped solid state laser (Millenia Prime, Spectra Physics, Newport, Calif.) was used to pump a Ti:Sapphire Tsunami oscillator (Model 3960C, Spectra Physics, Newport, Calif.), operating in femtosecond mode, at a repetition rate of 80 MHz, and tunable in the near infrared region. The output beam of the Ti:Sapphire laser was directed into an acousto-opto modulator (MT110/B50/A1.5 IR/S, AA Optoelectronic, France), controlled through the Zeiss LSM electronics and software, to attenuate the power before steering it into the LSM unit. The beam was reflected onto a 700/488 dichroic mirror and directed into the back aperture of a Plan Apochromat 63×, NA 1.4, oil immersion objective, and expanded to fill the back pupil. The fluorescence from the sample was collected from the same objective, intercepted by a 733LP dichroic mirror, sent toward the back port of the microscope, filtered through an ET700SP-2P filter (Chroma Technologies, Bellows Falls, Vt.) to remove residual scattering from the laser, and further passed through a 540/50 nm bandpass filter (Semrock, Rochester, N.Y.). The fluorescence is finally focused onto the photocathode of a H7422P-40 GaAsP photomultiplier detector (Hamamatsu, Japan). The large NA of the objective contributes to a certain degree of depolarization of the incoming excitation beam, as well as of the detected fluorescence. According to Fisz (J. Chem. Phys. A, 2007 and 2009), this would allow one to omit an analyzer (polarizer) in front of our detector, because magic angle conditions are achieved by using a 45° angle detection (i.e. unpolarized) configuration. The signal from the detector and the synchronization signal from the laser are directed into an SPC150 photon counting card (Becker & Hickl, Germany), controlled by the SPCM64 proprietary software from the manufacturer (Becker & Hickl, Germany). The data were collected with a 12.5 ns time window in TCSPC histogramming mode with 1024 channels, with a width of 12.2 ps each.
For the experiments the laser was tuned at 780 nm, and the power adjusted to 18 mW before the objective lens. RNA samples were diluted to a concentration of ˜3-5 μM in buffer. TO-1B was measured at a concentration of 50 μM due to low fluorescence signal of the compound, compared to the RNA-bound version. An 80 μl droplet was deposited onto a #1.5 coverslip, previously treated with BSA to avoid nonspecific binding of RNA to the glass, and covered to avoid evaporation. The excitation was focused ˜5 μm above the upper surface of the coverslip to reduce scatter and to avoid collecting signal from molecules immobilized on the glass surface. The beam was kept stationary by using the LSM controller to simply open the excitation shutter, and data were collected until the maximum count in the peak channel of the TCSPC histogram reached 10^4 photons. Experiments were repeated in triplicate. An instrument response function (IRF) was collected on every day of measurement by recording the second harmonic generation (SHG) signal from crushed urea crystals deposited onto a glass coverslip, in this case the bandpass filter before the detector was substituted with a 440 nm short pass filter to collect the 390 nm SHG. The data collected with the SPCM64 software were stored as *.sdt files for subsequent analysis.
Data were analyzed using the SPCImage software (Becker & Hickl, Germany). The fluorescence decay curves were fit using exponential functions of the form:
Where n is at most equal to 3 in our software. The data fitting routine uses a least-square algorithm where the exponential function is first reconvoluted with the measured IRF and then fit to the data. The shift of the IRF for each dataset, as well as a scatter contribution were included as free parameters during fitting. […]

[5] = Fluorescence enhancement of TO1-Biotin; assay type: biochemical; conditions: ligand TO1-B; 0.82 μM ligand, 2 μM RNA
Protocol: as §1

Molecule	FIE (fluorescence enhancement) [1]	FIE (fluorescence enhancement) [2]	TO1-Biotin binding affinity (in words) [3]	Kd [3] [nM]	α1 (%) [4] [%]	α2 (%) [4] [%]	τi (ns), intensity-weighted average lifetime [4] [ns]	τa (ns), amplitude-weighted average lifetime ([4]; listed as Mango II wt) [ns]	τa (ns), amplitude-weighted average lifetime ([4]; listed as wild-type Mango-II)	τ1 (ns) ([4]; listed as Mango II wt)	τ2 (ns) ([4]; listed as Mango II wt)	τ1 (ns) ([4]; listed as wild-type Mango-II)	τ2 (ns) ([4]; listed as wild-type Mango-II)	FIE (fluorescence enhancement) [5]	τa (ns), amplitude-weighted average lifetime [4] [ns]	τa (ns), amplitude-weighted average lifetime ([4]; listed as A22U mutant)	τ1 (ns) [4] [ns]	τ2 (ns) [4] [ns]	τ1 (ns) ([4]; listed as A22U mutant)	τ2 (ns) ([4]; listed as A22U mutant)
Mango-II: minimal construct engineered from isolate R2-1; SEQ ID NO: 6902 GCGUACGAAGGAGAGGAGAGGAAGAGGAGAGUACGC (chemistry not given here)	493 ± 5	401 ± 6	subnanomolar affinity	1.1 ± 0.3	45	55	2.05	1.51	1.51 (±0.06) ns	0.52	2.33	0.52 (±0.02) ns	2.33 (±0.12) ns	1303 ± 20	–	–	–	–	–	–
Mango II - A22U: Mango-II point mutant; SEQ ID NO: 6903 / 6905 (nucleic acid, chemistry not given here) chain 1: GCGUACGAAGGAGAGGAGAGGUAGAGGAGAGUACGC chain 2: GGCACGUACGAAGGAGAGGAGAGGUAGAGGAGAGUACGUGC	275 ± 3	302 ± 6	–	0.9 ± 0.4	45	55	2.53	–	–	–	–	–	–	1543 ± 24	1.92	1.92 (±0.03) ns	0.72	2.904	0.72 (±0.01) ns	2.904 (±0.001) ns

From patent US11434490B2, “Fluorogen-binding RNA aptamers” (CENTRE NATIONAL DE LA RECHERCHE SCIENTIFIQUE, priority 2017, dated 2022)
